Reference: US8603737B2, “Methods for identifying HCV protease inhibitors” (priority 2008, dated 2013)

Experiments:
[1] = tested on: HCV RNA replicon in cell line ET (luc-ubi-neo/ET), human Huh7 hepatoma; experiment: HCV RNA replicon assay (Example 5, Method A); assay type: cell-based; details: Hepatitis C virus, Huh-7, 72 h
Protocol: The compounds were assayed to evaluate the antiviral activity and cytotoxicity of compounds in vitro using HCV RNA replicons. This assay used the cell line ET (luc-ubi-neo/ET), which is a human Huh7 hepatoma cell line that contains an HCV RNA replicon with a stable luciferase (Luc) reporter and cell culture-adaptive mutations. The HCV RNA levels were directly measured by viral specific TaqMan RT-PCR:
The ET cell line was grown in Dulbecco's modified essential media (DMEM), 10% fetal bovine serum (FBS), 1% penicillin-streptomycin (pen-strep), 1% glutamine, 250 μg/mL G418 in a 5% CO2 incubator at 37° C. All cell culture reagents were obtained from Mediatech (Manassas, Va.). Cells were trypsinized (1% trypsin:EDTA) and plated out at 5×10^3 cells/well in white 96-well assay plates (Costar) dedicated to cell number (cytotoxicity) or antiviral activity assessments. Drugs were added at six 3-fold concentrations each and the assay was run in DMEM, 5% FBS, 1% pen-strep, 1% glutamine. Human interferon alpha-2b (PBL Biolabs, New Brunswick, N.J.) was included in each run as a positive control compound. […] Antiviral activity was measured by analyzing replicon-derived luciferase activity using the Steady-Glo Luciferase Assay System (Promega, Madison, Wis.) according to manufacturer's instruction. The number of cells in each well was determined by CytoTox-1 reagent (Promega). […]

HCV (A156S) mutant = molecular target: T1, HCV (A156S) mutant (Hepatitis C virus genotype 1b, UniProt P26663, A1182S); experiment: Mass spectrometric analysis of covalent modification, A156S mutant; assay type: binding; details: 3 hours reaction time
T1 construct: genotype 1b mutations in the NS3 protease of A156T, A156S, D168V, D168A, and R155K
Protocol: (§1) Mass spectrometric analysis of HCV wild type or HCV variants (C159S, A156S, R155K, D168A, A156T, and D168V) in the presence of test compound was performed. 100 pmols of HCV wild type (Bioenza Calif.) was incubated with test compound for 1 hr and 3 hrs at 10-fold excess of test compound to protein. 1 μL aliquots of the samples (total volume of 4.24 μL) were diluted with 10 μL of 0.1% TFA prior to micro C4 ZipTipping directly onto the MALDI target using Sinapinic acid as the desorption matrix (10 mg/mL in 0.1% TFA:Acetonitrile 50:50). Analyses were performed on a Shimadzu Biotech Axima TOF (Shimadzu Instruments) matrix-assisted-laser desorption/ionization Time-of-Flight (MALDI-TOF) mass spectrometer. The same procedure was carried out on 100 pmols of HCV C159S mutant of HCV protease for 3 hrs at 10-fold excess of test compound to protein.

HCV (A156T) mutant = molecular target: T2, HCV (A156T) mutant (Hepatitis C virus genotype 1b, UniProt P26663, A1182T); experiment: Mass spectrometric analysis of covalent modification, A156T mutant; assay type: binding; details: 3 hours reaction time
T2 construct: genotype 1b mutations in the NS3 protease of A156T, A156S, D168V, D168A, and R155K
Protocol: as §1

HCV (D168V) mutant = molecular target: T3, HCV (D168V) mutant (Hepatitis C virus genotype 1b, UniProt P26663, D1194V); experiment: Mass spectrometric analysis of covalent modification, D168V mutant; assay type: binding; details: 3 hours reaction time
T3 construct: genotype 1b mutations in the NS3 protease of A156T, A156S, D168V, D168A, and R155K
Protocol: as §1

HCV (R155K) mutant = experiment: Mass spectrometric analysis of covalent modification, R155K mutant; assay type: binding; details: 3 hours reaction time
Protocol: as §1

[2] = molecular target: T4, NS3 protease self-cleavage in Huh-7-Luc-Neo-ET cells (Hepatitis C virus genotype 1b, UniProt Q9WMX2, E1202G/T1280I); assay type: cell-based, HCV; details: replicon cells treated for 16 hours, continuous exposure (FIG. 3)
T4 construct: host or cells: Huh-7-Luc-Neo-ET replicon cells (human hepatoma Huh7)
Protocol: Inhibition of Protease Self Cleavage
The remaining wells were rinsed 2× with PBS then fed with Replicon Media and returned to the incubator.
Cell lysates were separated by SDS-Page (4-20%) and transferred to Immobilon-P PVDF membrane (Millipore Corporation, MA) and blotted with polyclonal anti NS3 antibody (Bioenza, Calif.). Blots were scanned on an Odyssey infrared scanner from Licor and the FL band and cleavage products were quantified separately using the Licor software provided with the scanner. The cleavage product was calculated as a percentage of the total NS3 in each sample and then normalized to the DMSO control so that the DMSO control reflects 100% activity.

C=C[C@@H]1C[C@]1(NC(=O)[C@@H]1C[C@@H](Oc2cc(-c3ccccc3)nc3cc(OC)ccc23)CN1C(=O)C(NC(=O)OC(C)(C)C)[C@@H](C)OC(=O)/C=C/C)C(=O)NS(=O)(=O)C1CC1 (stereo partly shown) [Compound 3]
IC50 ([1]; read-out: Inhibition, Replicon (IC50)): < 10 nM
IC90 ([1]; read-out: Inhibition, Replicon, IC90 value): < 10 nM

C=CC(=O)N(C)C[C@H](NC(=O)OC(C)(C)C)C(=O)N1C[C@H](OC(=O)N2Cc3cccc(F)c3C2)C[C@H]1C(=O)N[C@]1(C(=O)NS(=O)(=O)C2CC2)C[C@H]1C=C [Compound 4]
conversion via covalent modification (mass spectrometry) (HCV (A156S) mutant): complete conversion
conversion via covalent modification (mass spectrometry) (HCV (A156T) mutant): complete conversion
conversion via covalent modification (mass spectrometry) (HCV (D168V) mutant): complete conversion
conversion via covalent modification (mass spectrometry) (HCV (R155K) mutant): good conversion

CC(C)(C)OC(=O)NC1CN(C(=O)CCl)CCC/C=C\[C@@H]2C[C@@]2(C(=O)NS(=O)(=O)C2CC2)NC(=O)[C@@H]2C[C@@H](OC(=O)N3Cc4cccc(F)c4C3)CN2C1=O (stereo partly shown) [Compound 8]
NS3 internal self-cleavage products after treatment [2]: inhibited
